# Assay results reported in patent US20030032003A1, “IN VIVO SELECTION” (priority 2000, published 2003).
# Key:
# wildtype mice = experiment: Biochemical analysis of mouse serum after G418; type: in vivo; conditions: 335 mg/kg single i.p., serum 48 hrs after treatment
# Experimental: (§1) BUN and CRE levels are diagnostic markers of kidney damage. […] In these transgenic animals G418 at the highest dose (1140 mg/kg) caused immediate toxicity resulting in death due to breath failure within 10 minutes after injection.
# neo^R mice = experiment: Biochemical analysis of mouse serum after G418; type: in vivo; conditions: 335 mg/kg single i.p., serum 48 hrs after treatment
# Experimental: as §1
# neo +/+ transgenic mice = experiment: Acute toxicity of G418; type: in vivo, mouse; conditions: for survival / body weight, percentage of the body weight before the experiment: Neo +/+, 10 days
# Experimental: (§2) As in Example 1, applicants characterized the tissue specific expression of neoR mRNA and furthermore, investigated acute tissue specific toxicities of G418 in neo^R+/+ mice. The neoR mRNA reached highest levels in testis, intermediate in brain, kidney and liver. Low levels were detected in heart skeletal muscle and lungs and almost undetectable low levels in spleen. For acute toxicity determination the animals were treated with a single dose i.p. at concentrations starting at 47 mg/kg and increased thereafter by approximately 50% for each consecutive dose. The neoR expression in transgenic animals caused 10-fold increase of the approximate lethal dose of G418 (Table 4).
# Neo −/− mice = experiment: Acute toxicity of G418; type: in vivo, mouse; conditions: 10 days
# Experimental: as §2
smiles,measurement,setting,value
CN[C@@H]1[C@@H](O)[C@@H](O[C@@H]2[C@@H](O)[C@H](O[C@H]3O[C@H]([C@@H](C)O)[C@@H](O)[C@H](O)[C@H]3N)[C@@H](N)C[C@H]2N)OC[C@]1(C)O [G418],ALT,wildtype mice,102.0 ± 9.4 u/l
same,BUN,wildtype mice,96.0 ± 14.2 mg/dL
same,CRE,wildtype mice,0.67 ± 0.05 mg/dL
same,ALT,neo^R mice,54.3 ± 14.4 u/l
same,BUN,neo^R mice,22.3 ± 0.9 mg/dL
same,CRE,neo^R mice,0.23 ± 0.05 mg/dL
same,survival,neo +/+ transgenic mice; 47 mg/kg single i.p.,"surv (surv, animals survived the 10 day period)"
same,"body weight, percentage of the body weight before the experiment",neo +/+ transgenic mice; 68 mg/kg single i.p.,100 ± 1%
same,survival,neo +/+ transgenic mice; 68 mg/kg single i.p.,"surv (surv, animals survived the 10 day period)"
same,survival,neo +/+ transgenic mice; 103 mg/kg single i.p.,"surv (surv, animals survived the 10 day period)"
same,"body weight, percentage of the body weight before the experiment",neo +/+ transgenic mice; 153 mg/kg single i.p.,102 ± 3%
same,survival,neo +/+ transgenic mice; 153 mg/kg single i.p.,"surv (surv, animals survived the 10 day period)"
same,"body weight, percentage of the body weight before the experiment",neo +/+ transgenic mice; 230 mg/kg single i.p.,100 ± 2%
same,survival,neo +/+ transgenic mice; 230 mg/kg single i.p.,"surv (surv, animals survived the 10 day period)"
same,"body weight, percentage of the body weight before the experiment",neo +/+ transgenic mice; 345 mg/kg single i.p.,98 ± 4%
same,survival,neo +/+ transgenic mice; 345 mg/kg single i.p.,"surv (surv, animals survived the 10 day period)"
same,"body weight, percentage of the body weight before the experiment",neo +/+ transgenic mice; 480 mg/kg single i.p.,100 ± 1%
same,survival,neo +/+ transgenic mice; 480 mg/kg single i.p.,"surv (surv, animals survived the 10 day period)"
same,"body weight, percentage of the body weight before the experiment",neo +/+ transgenic mice; 778 mg/kg single i.p.,101 ± 1%
same,survival,neo +/+ transgenic mice; 778 mg/kg single i.p.,"surv (surv, animals survived the 10 day period)"
same,"body weight, percentage of the body weight before the experiment",neo +/+ transgenic mice; 1140 mg/kg single i.p.,100 ± 1%
same,survival,neo +/+ transgenic mice; 1140 mg/kg single i.p.,1 days
same,increase of the approximate lethal dose,neo +/+ transgenic mice; neoR expression in transgenic animals vs wild type,10 fold
same,time to death due to breath failure after injection,"neo +/+ transgenic mice; neo^R transgenic animals, highest dose 1140 mg/kg",≤ 10 min
same,"body weight, percentage of the body weight before the experiment",Neo −/− mice; 47 mg/kg single i.p.,101 ± 1%
same,survival,Neo −/− mice; 47 mg/kg single i.p.,"surv (surv, animals survived the 10 day period)"
same,"body weight, percentage of the body weight before the experiment",Neo −/− mice; 68 mg/kg single i.p.,104 ± 4%
same,survival,Neo −/− mice; 68 mg/kg single i.p.,"surv (surv, animals survived the 10 day period)"
same,"body weight, percentage of the body weight before the experiment",Neo −/− mice; 103 mg/kg single i.p.,73 ± 6%
same,survival,Neo −/− mice; 103 mg/kg single i.p.,8 days
same,"body weight, percentage of the body weight before the experiment",Neo −/− mice; 153 mg/kg single i.p.,73 ± 5%
same,survival,Neo −/− mice; 153 mg/kg single i.p.,8 days
same,"body weight, percentage of the body weight before the experiment",Neo −/− mice; 230 mg/kg single i.p.,85 ± 2%
same,survival,Neo −/− mice; 230 mg/kg single i.p.,4 days
same,"body weight, percentage of the body weight before the experiment",Neo −/− mice; 345 mg/kg single i.p.,97 ± 1%
same,survival,Neo −/− mice; 345 mg/kg single i.p.,1 days
same,"body weight, percentage of the body weight before the experiment",Neo −/− mice; 480 mg/kg single i.p.,99 ± 1%
same,survival,Neo −/− mice; 480 mg/kg single i.p.,1 days
same,"body weight, percentage of the body weight before the experiment",Neo −/− mice; 778 mg/kg single i.p.,100 ± 2%
same,survival,Neo −/− mice; 778 mg/kg single i.p.,1 days
